We go through 20 compounds from paper PMC4012464, “Design, Synthesis and Biological Evaluation of Tasiamide Analogues as Tumor Inhibitors” (Marine Drugs, 2014).

By IC50 is commonly meant the concentration needed to halve the response being measured.

Like-named read-outs stand apart in the source and are kept apart here. Non-standard residues stand in square brackets, D forms with d. Residues, ends and D or L forms follow the SMILES beside them. *: point of attachment. Pentanoyl(2S-OH,3S-Me) = CC[C@H](C)[C@H](O)C(=O)*; Tetrahydroisoquinolin(2-yl) = c1ccc2c(c1)CCN(*)C2; dNMeF = CN[C@H](Cc1ccccc1)C(=O)O; NMeQ = CN[C@@H](CCC(N)=O)C(=O)O; Tic = O=C(O)[C@@H]1Cc2ccccc2CN1; X1 = CN(C)[C@H](CCC(N)=O)C(=O)*; dNMeQ = CN[C@H](CCC(N)=O)C(=O)O; NMeA = CN[C@@H](C)C(=O)O; Pentanoyl = CCCCC(=O)*; NHBn = c1ccc(CN*)cc1; Glycolyl = O=C(CO)*; NHPh = c1ccc(N*)cc1; OBn = c1ccc(CO*)cc1

Data set [1] deals with KB, human nasopharyngeal carcinoma cell line. Briefly: cells. Type of data set: cell-based. The following applies: growth inhibition after 72 h of drug exposure, SRB staining, A515, means ± standard deviation from three independent experiments, read-out: In vitro inhibitory activity IC50, KB. How it is done:
(§1) All of the prepared analogues (S1–S4, C1–C9, N1–N2, M1–M3) were tested for their in vitro anticancer activities against KB and A549 cell lines. Briefly, cells were seeded into 96-well plates and cultured overnight, treated with tested samples for 72 h. Then, the cells were fixed with 10% trichloroacetic acid (100 µL) and stained with sulforhodamine B (Sigma, St. Louis, MO, USA). The sulforhodamine B (100 µL) in the cells was dissolved in 10 mmol/L Tris-HCl (150 µL) and measured at 515 nm using a multiwell spectrophotometer (VERSAmax, Molecular Devices, Sunnyvale, CA, USA). The inhibition rate on cell proliferation was calculated for each well as (A515control cells − A515treated cells)/A515control cells × 100% (A515: optical density value at 515 nm). The average IC50 values were determined by the Logit method from at least three independent tests.

The test system of data set [2] is A549, human non-small cell lung tumor cell line. Briefly: cells. To be noted: growth inhibition after 72 h of drug exposure, SRB staining, A515, means ± standard deviation from three independent experiments, read-out: In vitro inhibitory activity IC50, A549. The data set is classed as cell-based. How it is done: as §1
Background: The SRB assay estimates cell density from bound dye.

Data set [3] has as its system human colon carcinoma (LoVo) cell line. To be noted: natural product isolated from Symploca sp.; cited from earlier work. The text has this:
(§2) Marine cyanobacteria are a well-known prolific source of novel bioactive compounds [1, 2, 3], most of which are linear or cyclic (depsi)peptides with distinctive structures. […] The first total synthesis of tasiamide was reported by our group in 2008.

For data set [4], the system named is human nasopharyngeal carcinoma (KB) cell line. To be noted: natural product isolated from Symploca sp.; cited from earlier work.
Text: as §2

Regarding `CC[C@H](C)[C@H](O)C(=O)N[C@@H](CC(C)C)C(=O)N(C)[C@@H](CCC(N)=O)C(=O)N[C@H](C(=O)NCC(=O)N(C)[C@H](Cc1ccccc1)C(=O)Nc1ccccc1)[C@@H](C)CC` [Compound C1, HO-Hmp-Leu-N-Me-Gln-Ile-Gly-N-Me-D-Phe-NH-Ph] ({Pentanoyl(2S-OH,3S-Me)}-L[NMeQ]IG[dNMeF]-NHPh), the IC50 in data set [1] was 3.21 ± 0.6 µM; in data set [2], 4.17 ± 0.51 µM.
For `CC[C@H](C)[C@H](O)C(=O)N[C@@H](CC(C)C)C(=O)N(C)[C@H](CCC(N)=O)C(=O)N[C@H](C(=O)NCC(=O)N(C)[C@H](Cc1ccccc1)C(=O)Nc1ccccc1)[C@@H](C)CC` [Compound C2, HO-Hmp-Leu-N-Me-D-Gln-Ile-Gly-N-Me-D-Phe-NH-Ph] ({Pentanoyl(2S-OH,3S-Me)}-L[dNMeQ]IG[dNMeF]-NHPh), in that order: 8.26 ± 1.22 µM and > 50 µM.
On the same counts, the results for `CC[C@H](C)[C@H](O)C(=O)N[C@@H](CC(C)C)C(=O)N(C)[C@@H](CCC(N)=O)C(=O)N[C@H](C(=O)NCC(=O)N(C)[C@H](Cc1ccccc1)C(=O)NCc1ccccc1)[C@@H](C)CC` [Compound C3, HO-Hmp-Leu-N-Me-Gln-Ile-Gly-N-Me-D-Phe-NH-Bn] ({Pentanoyl(2S-OH,3S-Me)}-L[NMeQ]IG[dNMeF]-NHBn) are 2.08 ± 0.33 µM and 2.24 ± 0.44 µM.
Regarding `CC[C@H](C)[C@H](O)C(=O)N[C@@H](CC(C)C)C(=O)N(C)[C@H](CCC(N)=O)C(=O)N[C@H](C(=O)NCC(=O)N(C)[C@H](Cc1ccccc1)C(=O)NCc1ccccc1)[C@@H](C)CC` [Compound C4, HO-Hmp-Leu-N-Me-D-Gln-Ile-Gly-N-Me-D-Phe-NH-Bn] ({Pentanoyl(2S-OH,3S-Me)}-L[dNMeQ]IG[dNMeF]-NHBn), the results for the IC50 in data set [1] and in data set [2] were 1.29 ± 0.31 µM and 8.48 ± 1.39 µM, respectively.
For the compound `CC[C@H](C)[C@H](O)C(=O)N[C@@H](CC(C)C)C(=O)N(C)[C@@H](CCC(N)=O)C(=O)N[C@H](C(=O)NCC(=O)N(C)[C@H](Cc1ccccc1)C(=O)N1Cc2ccccc2C[C@H]1C(=O)OC)[C@@H](C)CC` [Compound C5, HO-Hmp-Leu-N-Me-Gln-Ile-Gly-N-Me-D-Phe-NH-MTC] ({Pentanoyl(2S-OH,3S-Me)}-L[NMeQ]IG[dNMeF][Tic]-OMe), the IC50 in data set [1] was determined as 2.45 ± 0.41 µM; in data set [2], 5.24 ± 1.12 µM.
On the same counts, the results for `CC[C@H](C)[C@H](O)C(=O)N[C@@H](CC(C)C)C(=O)N(C)[C@H](CCC(N)=O)C(=O)N[C@H](C(=O)NCC(=O)N(C)[C@H](Cc1ccccc1)C(=O)N1Cc2ccccc2C[C@H]1C(=O)OC)[C@@H](C)CC` [Compound C6, HO-Hmp-Leu-N-Me-D-Gln-Ile-Gly-N-Me-D-Phe-NH-MTC] ({Pentanoyl(2S-OH,3S-Me)}-L[dNMeQ]IG[dNMeF][Tic]-OMe) are 8.52 ± 1.41 µM and 12.9 ± 1.32 µM.
Take `CC[C@H](C)[C@H](O)C(=O)N[C@@H](CC(C)C)C(=O)N(C)[C@@H](CCC(N)=O)C(=O)N[C@H](C(=O)NCC(=O)N(C)[C@H](Cc1ccccc1)C(=O)N1CCc2ccccc2C1)[C@@H](C)CC` [Compound C7, HO-Hmp-Leu-N-Me-Gln-Ile-Gly-N-Me-D-Phe-NH-TIQ] ({Pentanoyl(2S-OH,3S-Me)}-L[NMeQ]IG[dNMeF]-{Tetrahydroisoquinolin(2-yl)}): the IC50 in data set [1] turned out to be 3.8 ± 0.46 µM; in data set [2] it was 3.67 ± 0.66 µM.
With `CC[C@H](C)[C@H](O)C(=O)N[C@@H](CC(C)C)C(=O)N(C)[C@H](CCC(N)=O)C(=O)N[C@H](C(=O)NCC(=O)N(C)[C@H](Cc1ccccc1)C(=O)N1CCc2ccccc2C1)[C@@H](C)CC` [Compound C8, HO-Hmp-Leu-N-Me-D-Gln-Ile-Gly-N-Me-D-Phe-NH-TIQ] ({Pentanoyl(2S-OH,3S-Me)}-L[dNMeQ]IG[dNMeF]-{Tetrahydroisoquinolin(2-yl)}), the IC50 in data set [1] is 3.64 ± 0.55 µM; in data set [2], > 50 µM.
Regarding `CC[C@H](C)[C@H](O)C(=O)N[C@@H](CC(C)C)C(=O)N(C)[C@@H](C)C(=O)N[C@H](C(=O)NCC(=O)N(C)[C@H](Cc1ccccc1)C(=O)NCc1ccccc1)[C@@H](C)CC` [Compound C9, HO-Hmp-Leu-N-Me-Ala-Ile-Gly-N-Me-D-Phe-NH-Bn] ({Pentanoyl(2S-OH,3S-Me)}-L[NMeA]IG[dNMeF]-NHBn), the IC50 in data set [1] and in data set [2] was > 50 µM in each case.
Turning to `CC[C@H](C)[C@H](O)C(=O)N[C@@H](CC(C)C)C(=O)N[C@H](CCC(N)=O)C(=O)N[C@H](C(=O)NCC(=O)N(C)[C@H](Cc1ccccc1)C(=O)NCc1ccccc1)[C@@H](C)CC` [Compound M1, HO-Hmp-Leu-D-Gln-Ile-Gly-N-Me-D-Phe-NH-Bn] ({Pentanoyl(2S-OH,3S-Me)}-L[dQ]IG[dNMeF]-NHBn), the IC50 in data set [1] and in data set [2] was > 50 µM each time.
In the case of `CC[C@H](C)[C@H](O)C(=O)N[C@@H](CC(C)C)C(=O)N(C)[C@H](CCC(N)=O)C(=O)N[C@H](C(=O)NCC(=O)N[C@H](Cc1ccccc1)C(=O)NCc1ccccc1)[C@@H](C)CC` [Compound M2, HO-Hmp-Leu-N-Me-D-Gln-Ile-Gly-D-Phe-NH-Bn] ({Pentanoyl(2S-OH,3S-Me)}-L[dNMeQ]IG[dF]-NHBn), the IC50 in data set [1] and in data set [2] was > 50 µM each time.
Take `CC[C@H](C)[C@H](O)C(=O)N[C@@H](CC(C)C)C(=O)N[C@H](CCC(N)=O)C(=O)N[C@H](C(=O)NCC(=O)N[C@H](Cc1ccccc1)C(=O)NCc1ccccc1)[C@@H](C)CC` [Compound M3, HO-Hmp-Leu-D-Gln-Ile-Gly-D-Phe-NH-Bn] ({Pentanoyl(2S-OH,3S-Me)}-L[dQ]IG[dF]-NHBn): the IC50 in data set [1] and in data set [2] was > 50 µM each time.
As to `CCCCC(=O)N[C@@H](CC(C)C)C(=O)N(C)[C@H](CCC(N)=O)C(=O)N[C@H](C(=O)NCC(=O)N(C)[C@H](Cc1ccccc1)C(=O)NCc1ccccc1)[C@@H](C)CC` [Compound N1, n-Pentanoyl-Leu-N-Me-D-Gln-Ile-Gly-N-Me-D-Phe-NH-Bn] (Pentanoyl-L[dNMeQ]IG[dNMeF]-NHBn), the IC50 in data set [1] and in data set [2] was > 50 µM throughout.
Regarding `CC[C@H](C)[C@H](NC(=O)[C@@H](CCC(N)=O)N(C)C(=O)[C@H](CC(C)C)NC(=O)CO)C(=O)NCC(=O)N(C)[C@H](Cc1ccccc1)C(=O)NCc1ccccc1` [Compound N2, 2-Hydroxyacetyl-Leu-N-Me-D-Gln-Ile-Gly-N-Me-D-Phe-NH-Bn] (Glycolyl-L[dNMeQ]IG[dNMeF]-NHBn), the IC50 in data set [1] and in data set [2] was > 50 µM each time.
In the case of `CC[C@H](C)[C@H](NC(=O)[C@@H](CCC(N)=O)N(C)C)C(=O)NCC(=O)N(C)[C@H](Cc1ccccc1)C(=O)N1CCC[C@H]1C(=O)OC` [Compound S1, N,N-Me2-D-Gln-Ile-Gly-N-Me-D-Phe-Pro-OMe] (X1-IG[dNMeF]P-OMe), the half-maximal inhibitory concentration (IC50) in data set [1] and in data set [2] was > 50 µM each time.
Consider `CC[C@H](C)[C@@H](C(=O)NCC(=O)N(C)[C@H](Cc1ccccc1)C(=O)N1CCC[C@H]1C(=O)OC)N(C)C` [Compound S2, N,N-Me2-Ile-Gly-N-Me-D-Phe-Pro-OMe], for which the IC50 in data set [1] and in data set [2] was > 50 µM each time.
As for `CC[C@H](C)[C@H](O)C(=O)N[C@@H](CC(C)C)C(=O)N(C)[C@H](CCC(N)=O)C(=O)N[C@H](C(=O)OCc1ccccc1)[C@@H](C)CC` [Compound S3, HO-Hmp-Leu-N-Me-D-Gln-Ile-OBn], the IC50 in data set [1] and in data set [2] was > 50 µM in each case.
For the compound `CC[C@H](C)[C@H](O)C(=O)N[C@@H](CC(C)C)C(=O)N(C)[C@H](CCC(N)=O)C(=O)N[C@H](C(=O)NCC(=O)OCc1ccccc1)[C@@H](C)CC` [Compound S4, HO-Hmp-Leu-N-Me-D-Gln-Ile-Gly-OBn] ({Pentanoyl(2S-OH,3S-Me)}-L[dNMeQ]IG-OBn), the IC50 in data set [1] and in data set [2] was > 50 µM in each case.
As for `CC[C@H](C)[C@H](O)C(=O)N[C@@H](CC(C)C)C(=O)N(C)[C@H](CCC(N)=O)C(=O)N[C@H](C(=O)NCC(=O)N(C)[C@H](Cc1ccccc1)C(=O)N1CCC[C@H]1C(=O)OC)[C@@H](C)CC` [Compound T2, tasiamide] ({Pentanoyl(2S-OH,3S-Me)}-L[dNMeQ]IG[dNMeF]P-OMe), the results for the IC50 in data set [1] and in data set [2] were 0.58 ± 0.07 µM and > 50 µM, respectively. In addition, the “Cytotoxicity IC50, LoVo” value in data set [3] was 3.47 µg/mL. For the same compound, in data set [4], the “Cytotoxicity IC50, KB” value is 0.48 µg/mL.
In the case of `COc1cc([C@@H]2c3cc4c(cc3[C@@H](O[C@@H]3O[C@@H]5CO[C@@H](C)O[C@H]5[C@H](O)[C@H]3O)[C@H]3COC(=O)[C@H]23)OCO4)cc(OC)c1O` [Etoposide, etoposide, reference compound], the IC50 was found to be 0.85 ± 0.08 µM in data set [1] (Homo sapiens) and 0.99 ± 0.09 µM in data set [2] (Homo sapiens).
